Measured values reported in patent US8796280B2, “2,3-disubstituted pyrazinesulfonamides as CRTH2 inhibitors” (Merck Serono, S.A., priority 2005, dated 2014).

Key:
CRTH2 [1] = target: T1, CRTH2 (Homo sapiens (Human), UniProt Q9Y5Y4); test: Determination of Ki, equilibrium competition binding against [3H]PGD2; conditions: competition against [3H]PGD2; average of at least three independent dose response experiments; Ki calculated from IC50
Description: (§1) The inhibitory activity can be investigated by a radioligand binding assay (Sawyer et al., Br. J. Pharmocol 2002, 137, 1163-72). The radioligand binding assay was performed at room temperature in binding buffer (10 mM HEPES/KOH pH […], with protease inhibitor cocktail tablets), containing 1.5 nM [^3H]PGD2 (Amersham, 156 Cie/mmol), and 10 μg of hCRTH2 HEK293 (EBNA) cell membrane protein in a final volume of 100 μl in 96 well plates (Corning, USA). Non-specific binding was determined in the presence of 1 μM PGD2 (Cayman, USA). Competing pyrazine sulfonamides were diluted in dimethylsulphoxide so that the total volume of dimethylsulfoxide was kept constant at 1% dimethylsulphoxide (Me2SO). 10 μl of the pyrazine sulfonamides were added. Incubation (60 min at room temperature) was terminated by rapid filtration through 96 wells hydrophobic GF/C Unifilter plates (Whatman, USA). Filters were washed twice with 250 μl of Tris-HCl pH 7.4, 10 mM MnCl2, and residual radioligand bound to the filters was mixed to 100 μl of liquid scintillation cocktail (Optiphase Supermix, Perkin Elmer, USA) and binding activity was determined by counting residual radioligand using a 1450 Micro-beta scintillation counter (Wallac, UK).
Ki values were determined by equilibrium competition binding experiments against [^3H]PGD2. Ki values were calculated from the formula below and represent the average of at least three independent dose response experiments. The Ki values give the ligand concentrations necessary to inhibit 50% of the binding of 3[H]PGD2 to CRTH2. Ki=IC50/(1+[Concentration of Ligand]/Kd)]
All experiments were performed in 96 well plates, in a final volume of 100 μl according to the above described filtration assay. The concentration of membranes and 3[H]PGD2, as well as the positive and negative controls were identical to the conditions described above.

CRTH2 [2] = target: T1, CRTH2; test: Radioligand binding assay ([3H]PGD2 displacement, hCRTH2 HEK293 (EBNA) cell membranes); conditions: 1.5 nM [3H]PGD2, 10 μg hCRTH2 HEK293 (EBNA) membrane protein, 60 min room temperature; test concentration not given
Source text: Human CRTH2 cDNA was amplified by PCR using a human urinary bladder cDNA library as a template and specific primers containing HindIII and BamHI restriction sites for cloning into the pCEP4 vector (Invitrogen). The vector construction is described in detail in Sawyer et al., Br. J. Pharmocol 2002, 137, 1163-72. The nucleotide sequence of the cloned cDNA was identical the previously reported hCRTH2 sequence (Nagata et al, 1999, J. Immunol. 162, 1278-1286).
HEK293 (EBNA) cells were transfected with the pCEP4-hCRTH2 construct using the calcium phosphate technique. Cells were maintained in culture at 37° C. in an atmosphere of 5% CO2 in Dulbecco's modified Eagle's F12 medium (Invitrogen), containing 10% heat-inactivated foetal calf serum (TerraCell International, Canada), 2 mM Glutamine, 100 units/ml of penicillin and 100 μg/ml streptomycin (Invitrogen). 48 hours after the transfection, cells were grown in presence of 300 μg/ml of Hygromycin B (Invitrogen) for 4 weeks and antibiotic resistant cells were amplified for cell membrane preparation.
Adherent HEK293 (EBNA) cells expressing hCRTH2 were cultured in 225 cm^2 cell culture flasks (Corning, USA) in 30 ml of medium. After two rinses of phosphate buffered saline (PBS), cells were harvested in 10 ml of PBS containing 1 mM EDTA, centrifuged at 500×g for 5 min at 4° C. and frozen at −80° C. The pellet was re-suspended in 50 mM Tris-HCl, pH 7.4, 2 mM EDTA, 250 mM Sucrose, containing protease inhibitor cocktail tablets, (Complete EDTA-free, Roche, Germany) and incubated 30 min at 4° C. Cells were disrupted by nitrogen cavitation (Parr Instruments, USA) at 4° C. (800 p.s.i. for 30 min), and centrifuged at 500×g for 10 min at 4° C. Pellet containing nuclei and cellular debris was discarded and supernatant was centrifuged 60 min at 4° C. at 45000×g. Membrane pellet was re-suspended in storage buffer (10 mM HEPES/KOH pH 7.4, 1 mM EDTA, 250 mM sucrose, protease inhibitor cocktail tablets) using Dounce homogenization and frozen in liquid nitrogen, and stored at −80° C.
as §1

T1 sequence (Q9Y5Y4 whole entry): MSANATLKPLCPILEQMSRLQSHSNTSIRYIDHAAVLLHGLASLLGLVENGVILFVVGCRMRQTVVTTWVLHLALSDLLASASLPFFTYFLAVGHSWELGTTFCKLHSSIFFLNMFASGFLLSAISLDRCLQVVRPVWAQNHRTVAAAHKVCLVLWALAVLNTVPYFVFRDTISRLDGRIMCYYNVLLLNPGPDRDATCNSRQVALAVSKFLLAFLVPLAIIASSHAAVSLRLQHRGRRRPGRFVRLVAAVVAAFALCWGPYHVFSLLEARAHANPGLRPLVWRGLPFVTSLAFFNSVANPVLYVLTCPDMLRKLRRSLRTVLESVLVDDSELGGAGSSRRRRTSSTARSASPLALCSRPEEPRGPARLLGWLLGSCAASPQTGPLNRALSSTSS

| Structure (SMILES) | Ki (CRTH2 [1]) [µM] | Inhibition hCRTH2 [%] (CRTH2 [2]) |
| --- | --- | --- |
| CCN(Cc1ccc(-c2nccnc2NS(=O)(=O)c2ccccc2Cl)cc1)c1ccccn1 [Compound 45, 2-Chloro-N-(3-{4-[(ethyl-pyridin-2-yl-amino)-methyl]-phenyl}-pyrazin-2-yl)-benzenesulfonamide] | 4.51 |  |
| CN(Cc1ccc(-c2nccnc2NS(=O)(=O)c2cccs2)cc1)c1ccc(Cl)cc1 [Compound 12, N-[3-(4-{[(4-chlorophenyl)(methyl)amino]methyl}phenyl)pyrazin-2-yl]-thiophene-2-sulfonamide] | 8.43 | 65.0 |
| O=S(=O)(Nc1nccnc1-c1ccc(Cn2ccc3cc(F)ccc32)cc1)c1ccccc1Cl [Compound 41, 2-Chloro-N-{3-[4-(5-fluoro-indol-1-ylmethyl)-phenyl]-pyrazin-2-yl}-benzenesulfonamide] | 3.9 |  |
| Cc1ccc(S(=O)(=O)Nc2nccnc2-c2ccc(CN(C)c3ccc(OC(F)(F)F)cc3)cc2)cc1 [Compound 14, 4-methyl-N-{3-[4-({methyl[4-(trifluoromethoxy)phenyl]amino}-methyl)phenyl]pyrazin-2-yl}benzenesulfonamide] | 5.85 | 53.0 |
| O=S(=O)(Nc1nccnc1N1CCN(Cc2ccc3ccccc3n2)CC1)c1ccc(Oc2ccccc2)cc1 [Compound 13, 4-phenoxy-N-{3-[4-(quinolin-2-ylmethyl)piperazin-1-yl]pyrazin-2-yl}-benzenesulfonamide] | 4.03 | 64.5 |
| CN(Cc1ccc(-c2nccnc2NS(=O)(=O)c2cccc(Cl)c2)cc1)c1ccc(OC(F)(F)F)cc1 [Compound 11, 3-chloro-N-{3-[4-({methyl[4-(trifluoromethoxy)phenyl]amino}methyl)phenyl]pyrazin-2-yl}benzenesulfonamide] | 5.16 | 65.0 |
| CN(Cc1ccc(-c2nccnc2NS(=O)(=O)c2ccccc2Cl)cc1)c1ccccc1F [Compound 42, 2-Chloro-N-[3-(4-{[(2-fluoro-phenyl)-methyl-amino]-methyl}-phenyl)-pyrazin-2-yl]-benzenesulfonamide] | 3.9 |  |
| CN(Cc1ccc(-c2nccnc2NS(=O)(=O)c2ccc(Cl)cc2)cc1)c1ccccc1 [Compound 15, 4-chloro-N-[3-(4-{[methyl(phenyl)amino]methyl}phenyl)pyrazin-2-yl]-benzenesulfonamide] | 5.38 | 51.0 |
| CN(Cc1ccc(-c2nccnc2NS(=O)(=O)c2ccc(C#N)cc2)cc1)c1ccc(OC(F)(F)F)cc1 [Compound 16, 4-cyano-N-{3-[4-({methyl[4-(trifluoromethoxy)phenyl]amino}-methyl)phenyl]pyrazin-2-yl}benzenesulfonamide] | 5.71 | 47.0 |
| Cc1cc2ccccc2n1Cc1ccc(-c2nccnc2NS(=O)(=O)c2ccccc2Cl)cc1 [Compound 43, 2-Chloro-N-{3-[4-(2-methyl-indol-1-ylmethyl)-phenyl]-pyrazin-2-yl}-benzenesulfonamide] | 4.11 |  |

Stronger by Ki (CRTH2 [1]), values ahead:

| Ki (CRTH2 [1]) [µM] | Inhibition hCRTH2 [%] (CRTH2 [2]) | Structure (SMILES) |
| --- | --- | --- |
| 2.32 | 82.0 | O=S(=O)(Nc1nccnc1-c1ccc(COc2ccc3ccccc3c2)cc1)c1ccccc1Cl [Compound 5, 2-chloro-N-(3-{4-[(2-naphthyloxy)methyl]phenyl}pyrazin-2-yl)benzene-sulfonamide] |
| 2.12 | 81.5 | O=S(=O)(Nc1nccnc1-c1ccc(Cn2ccc3ccccc32)cc1)c1ccccc1Cl [Compound 6, 2-chloro-N-{3-[4-(1H-indol-1-ylmethyl)phenyl]pyrazin-2-yl}benzene-sulfonamide] |
| 0.4 |  | CN(Cc1ccc(-c2nccnc2NS(=O)(=O)c2ccccc2C(F)(F)F)cc1)c1ccccc1 [Compound 18, N-(3-{4-[(Methyl-phenyl-amino)-methyl]-phenyl}-pyrazin-2-yl)-2-trifluoromethyl-benzenesulfonamide] |
| 2.59 | 80.0 | O=S(=O)(Nc1nccnc1-c1ccc(COc2ccc3c(c2)CCCC3)cc1)c1ccccc1Cl [Compound 7, 2-chloro-N-(3-{4-[(5,6,7,8-tetrahydronaphthalen-2-yloxy)methyl]-phenyl}-pyrazin-2-yl)benzenesulfonamide] |
| 1.4 | 72.0 | COc1cccc(COCc2ccc(-c3nccnc3NS(=O)(=O)c3ccccc3C(F)(F)F)cc2)c1 [Compound 10, N-[3-(4-{[(3-methoxybenzyl)oxy]methyl}phenyl)pyrazin-2-yl]-2-(trifluoromethyl)benzenesulfonamide] |
| 1.42 | 79.0 | CCc1nc2ccccc2n1Cc1ccc(-c2nccnc2NS(=O)(=O)c2ccccc2Cl)cc1 [Compound 8, 2-chloro-N-(3-{4-[(2-ethyl-1H-benzimidazol-1-yl)methyl]phenyl}pyrazin-2-yl)benzenesulfonamide] |
| 0.38 |  | CN(Cc1ccc(-c2nccnc2NS(=O)(=O)c2ccccc2C(F)(F)F)cc1)c1ccc(F)cc1 [Compound 17, N-[3-(4-{[(4-Fluoro-phenyl)-methyl-amino]-methyl}-phenyl)-pyrazin-2-yl]-2-trifluoromethyl-benzenesulfonamide] |
| 1.57 | 84.5 | CN(Cc1ccc(-c2nccnc2NS(=O)(=O)c2ccccc2Cl)cc1)c1ccccc1 [Compound 4, 2-chloro-N-[3-(4-{[methyl(phenyl)amino]methyl}phenyl)pyrazin-2-yl]-benzenesulfonamide] |
| 2.98 | 72.5 | O=S(=O)(Nc1nccnc1-c1ccc(CNc2ccc3c(c2)OCO3)cc1)c1ccccc1C(F)(F)F [Compound 9, N-(3-{4-[(1,3-benzodioxol-5-ylamino)methyl]phenyl}pyrazin-2-yl)-2-(trifluoromethyl)benzenesulfonamide] |
